Assay type in all cases: cell-based
Assay [1] addresses T1, SRD5A3 (Homo sapiens, UniProt Q9H8P0).
T1 construct: The downregulation of SRD5A3 and GSPT1 (eRF3a) proteins in PC-3 and HepG2 cells by C59; endogenous in cells; host or cells: 22Rv1, PC-3, HepG2
T1 sequence (Q9H8P0 1-318): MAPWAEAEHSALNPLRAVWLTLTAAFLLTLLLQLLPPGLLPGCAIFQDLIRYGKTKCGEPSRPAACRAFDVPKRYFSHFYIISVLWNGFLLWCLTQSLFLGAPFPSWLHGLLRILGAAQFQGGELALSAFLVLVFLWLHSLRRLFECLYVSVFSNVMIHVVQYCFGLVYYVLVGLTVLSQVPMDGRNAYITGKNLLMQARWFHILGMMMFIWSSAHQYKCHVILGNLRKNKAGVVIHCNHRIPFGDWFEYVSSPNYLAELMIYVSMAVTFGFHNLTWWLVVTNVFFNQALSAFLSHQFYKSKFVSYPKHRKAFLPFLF
The assay is described as follows: Western blot assay in HepG2 cells: SRD5A3. As to conditions: different concentrations at 24 h (FIG. 10). The source says:
(§1) Example 84: Western Blot Assay of Compound C59 in 22Rv1, PC-3, and HepG2 Cells
(§2) (1) Materials: 22Rv1, PC-3, and HepG2 cell, anti-SRD5A1 antibody (ab167606), anti-SRD5A2 antibody (ab124877), anti-SRD5A3 antibody (PA5-107029), anti-androgen receptor (AR) antibody (CST, No. 5153), anti-GSPT1 antibody (Abcam, ab234433), anti-GADPH antibody (CST, No. 5174), anti-c-Myc antibody (CST, No. 8583), anti-α-tublin antibody (CST, No. 2125), anti-rabbit IgG, HRP-linked antibody (CST, No. 7074), electrophoresis device and membrane transfer device (LIUYI, BEIJING; DYCZ-24DN)
(§3) Cell seeding: 22Rv1 (Cell Bank of the Chinese Academy of Sciences, TCHu100), PC-3 (Cell Bank of the Chinese Academy of Sciences, SCSP-532) and HepG2 cells (Cell Bank of the Chinese Academy of Sciences, TCHu72) were subcultured and trypsinized to prepare 6×10^5 cells/mL suspensions, seeded on 6-well plates (3 mL/well), and cultured overnight in a cell incubator at 5% CO2 and 37° C. […]
(§4) Protein quantification: The protein was quantified using a BCA protein quantification kit. […]
(§5) Western immunoblot assay (or Western blot, WB): SDS-PAGE gel at a proper concentration was prepared according to the molecular weight of the target protein: for example, the concentration of the separation gel was 8% and the concentration of the stacking gel was 5%. The loading volume was adjusted according to the protein quantification results. […]
For orientation: A western blot detects proteins with antibodies after separation by electrophoresis.

In assay [2] the target is T1, SRD5A3. The assay is described as follows: Western blot assay in PC-3 cells: SRD5A3. As to conditions: different concentrations at 24 h (FIG. 9).
Text: as §1, §2, §3, §4, §5

The test system of assay [3] is AGS cells. The assay is described as follows: Anti-proliferative toxicity of C63 in tumor cell lines (CCK8): AGS. The note with it: Homo sapiens, 72 h, 3 days, read-out: Inhibition rate. Here is the method: (§6) Example 83: Detection of Anti-Proliferative Toxicity of C63 in Some Tumor Cell Lines
AGS cells (purchased from the Cell Bank of the Chinese Academy of Sciences, Cat. No. TCHu232) were subcultured in a culture medium (F12K medium+[…] dual-antibiotic solution+10% fetal bovine serum) in an incubator at […] and 37° C.
AGS cells were seeded at 2000 cells/well (90 μL) on a 96-well plate and cultured for 24 h.
(§7) 10 mM compound stock solutions were prepared in DMSO.
(§8) The compound stock solution was diluted with DMSO to give DMSO solutions 1-9 at concentrations of 0 μM, 2500 μM, 500 μM, 100 μM, 20 μM, 4 μM, 0.8 μM, 0.16 μM, and 0.032 μM.
(§9) 2 μL of each of solutions 1-9 was added to 98 μL of the medium to give mixed solutions 11-19 of the compound and the medium.
(§10) 10 μL of each of solutions 11-19 was added to the above cell seed solution to give a total volume of 100 μL (90 μL+10 μL).
(§11) The concentrations of the compound in the wells were 0 μM, 5.0 μM, 1.0 μM, 0.2 μM, 0.04 μM, 0.008 μM, 0.0016 μM, 0.00032 μM, and 0.000064 μM. All concentrations were in triplicate.
(§12) After the above-treated cells were cultured for 3 days, 10 μL of the CCK8 solution (DOJINDO, Cat. No. PF725) was added to each well. The plate was incubated in an incubator at 37° C. for 1-4 h and then detected on a microplate reader for the reading at 450 nm.

The test system of assay [4] is U251 cells. The assay is described as follows: Anti-proliferative toxicity of C63 in tumor cell lines (CCK8): U251. As to conditions: Homo sapiens, U-251, 72 h, 3 days, read-out: Inhibition rate. As to the method:
as §6
U251 cells (purchased from the Cell Bank of the Chinese Academy of Sciences, Cat. No. TCHu58) were subcultured in a culture medium (DMEM medium+1% penicillin-streptomycin dual-antibiotic solution+10% fetal bovine serum) in an incubator at 5% carbon dioxide and 37° C.
U251 cells were seeded at 2000 cells/well (90 μL) on a 96-well plate and cultured for 24 h.
as §7, §8, §9, §10, §11, §12

Regarding `C[C@]12C=CC(=O)N[C@@H]1CC[C@@H]1[C@@H]2CC[C@]2(C)[C@@H](C(=O)Nc3cccc(N[C@@H]4CCC[C@@H](Nc5cccc6c5C(=O)N(C5CCC(=O)NC5=O)C6=O)C4)c3)CC[C@@H]12` (stereo partly drawn) [C59, N-(3-(N—(N-(4-(2-(3-(2,6-dioxopiperidine))-isoindole-1,3-dione))-1R,3R-cyclohexanediamine))phenyl)-3-oxo-4-aza-5α-androst-1-ene-17β-carboxamide], the “downregulation of SRD5A3 protein (Western blot)” value in assay [1] and in assay [2] was “downregulation” throughout.
As for `C[C@]12C=CC(=O)N[C@@H]1CC[C@@H]1[C@@H]2CC[C@]2(C)[C@@H](C(=O)Nc3cccc(N[C@@H]4CCC[C@@H](Nc5cccc6c5C(=O)N([C@H]5CCC(=O)NC5=O)C6=O)C4)c3)CC[C@@H]12` [C63, N-(3-(N—(N-(4-(2-(3S-(2,6-dioxopiperidine))-isoindole-1,3-dione))-1R,3R-cyclohexanediamine))phenyl)-3-oxo-4-aza-5α-androst-1-ene-17β-carboxamide], the inhibition – broadly, the share of the control response that was lost under treatment – at 64 pM in assay [3] (0.000064 μM) turned out to be 17.5%; in assay [4] (0.000064 μM), 22%. The inhibition at 0.00032 µM in assay [3] (0.000320 μM) came out at 11.1%; in assay [4] (0.000320 μM), 21.7%. For the same compound, the inhibition at 0.0016 µM was determined as 20.4% in assay [3] (0.001600 μM) and 53.4% in assay [4] (0.001600 μM). The inhibition at 0.008 µM in assay [3] (0.008000 μM) is 44.2%; in assay [4] (0.008000 μM) it was 67.8%. In addition, the values for the inhibition at 0.04 µM in assay [3] (0.040000 μM) and in assay [4] (0.040000 μM) were 59.7% and 69%, respectively. Moreover, the inhibition at 0.2 µM in assay [3] (0.200000 μM) was 74%; in assay [4] (0.200000 μM), 71.7%. In addition, the inhibition at 1 µM in assay [3] (1.000000 μM) was determined as 79.8%; in assay [4] (1.000000 μM) it was 72.2%. Besides, the inhibition at 5 µM turned out to be 80.8% in assay [3] (5.000000 μM) and 72.2% in assay [4] (5.000000 μM).

Source of the values: US20250213701A1, “MEDICAMENT FOR TREATING HUMAN TUMOR BASED ON ERF3A-TARGETING PROTEOLYSIS MECHANISM” (SUZHOU DEGEN BIO-MEDICAL CO., LTD., priority 2022, published 2025).
